Assay results as given in patent US5519034A, “Tetraisoquinoline compounds which have useful pharmaceutical utility” (The Boots Company PLC, priority 1991, dated 1996).
pKi: −log10 of the molar value. Like-named read-outs stand apart in the source and are kept apart here.

Assays:
D2 dopamine receptors = biological target: T1, D2 dopamine receptors (Rattus norvegicus, UniProt P61169); assay: D2 dopamine receptor binding: inhibition of tritiated (S)-sulpiride binding, rat striatal samples; set-up: species or system rat (male Charles River CD rats); conditions: for pKi: rat striatum, tritiated (S)-sulpiride; for Ki for D2 / Ki for D1: ratio to two significant figures
T1 construct: Striatal samples from the brains of male Charles River CD rats; from tissue; host or cells: striatum of male Charles River CD rats (washed membrane pellet)
Method: (§1) Striatal samples from the brains of male Charles River CD rats weighing between 140-250 g were homogenised in ice-cold 50 mM Tris-HCl buffer (pH 7.4 when measured at 25° C. for D1 binding assays and pH 7.7 when measured at 25° C. for D2 binding assays) and centrifuged for 10 minutes (at 21,000 g when used for D1binding assay and 40,000 g when used for D2binding assays). The pellet was resuspended in the same buffer, again centrifuged and the final pellet stored at -80° C. Before each test the pellet was resuspended in 50 mM Tris-HCl buffer containing 120 mM NaCl, 5 mM KCl, 2 mM CaCl2 and 1 mM MgCl2 at pH 7.4 for the D1 binding assays and at pH 7.7 with the addition of 6 mM ascorbic acid for the D2 binding assays. Aliquots of this suspension were then added to tubes containing the ligand and either the compound under test or buffer. For the D1 binding assays the ligand was tritiated SCH 23390 and the mixture was incubated at 37° C. for 30 minutes before the incubation was terminated by rapid filtration. For the D2 binding assays the ligand was tritiated (S)-sulpiride and the mixture was incubated at 4° C. for 40 minutes before the incubation was terminated by rapid filtration. Non-specific binding was determined experimentally by the addition of saturating concentrations of chloropromazine or spiroperidol for D1 and D2 receptors respectively.
(§2) The filters were washed with ice-cold Tris-HCl buffer and dried. The filters were punched out on to vials containing scintillation fluid and were left for about 20 hours before being counted by scintillation spectrophotometry. Displacement curves were produced over a range of concentrations of the compound under test and the concentration which gave a 50% inhibition of specific binding (IC50) obtained from the curve. The inhibition coefficient Ki was then calculated using the formula [formula] in which [ligand] is the concentration of the tritiated ligand used and KD is the equilibrium dissociation constant for the ligand.
(§3) In some cases Ki values for D2 binding were estimated from single concentration data by the application of the Langmuir adsorption isotherm equation. These cases are indicated by an "E" in the last two columns of Table I. In other cases it was not possible to determine or estimate the Ki and the Ki value is given as greater than (>) that which would result from the application of the above formula to the highest concentration which displaced ≤50% of the ligand.

D1 dopamine receptors = biological target: T2, D1 dopamine receptors (Rattus norvegicus, UniProt P18901); assay: D1 dopamine receptor binding: inhibition of tritiated SCH 23390 binding, rat striatal samples; set-up: species or system rat (male Charles River CD rats); conditions: rat striatum, tritiated SCH 23390, pH 7.4, 37° C., 30 minutes
T2 construct: Striatal samples from the brains of male Charles River CD rats; from tissue; host or cells: striatum of male Charles River CD rats (washed membrane pellet)
Method: as §1, §2, §3

[1] = pH 7.7, 4° C., 40 minutes, > = from highest concentration which displaced ≤50% of the ligand, read-out: Ki for D2 binding

T2 sequence (P18901 whole entry): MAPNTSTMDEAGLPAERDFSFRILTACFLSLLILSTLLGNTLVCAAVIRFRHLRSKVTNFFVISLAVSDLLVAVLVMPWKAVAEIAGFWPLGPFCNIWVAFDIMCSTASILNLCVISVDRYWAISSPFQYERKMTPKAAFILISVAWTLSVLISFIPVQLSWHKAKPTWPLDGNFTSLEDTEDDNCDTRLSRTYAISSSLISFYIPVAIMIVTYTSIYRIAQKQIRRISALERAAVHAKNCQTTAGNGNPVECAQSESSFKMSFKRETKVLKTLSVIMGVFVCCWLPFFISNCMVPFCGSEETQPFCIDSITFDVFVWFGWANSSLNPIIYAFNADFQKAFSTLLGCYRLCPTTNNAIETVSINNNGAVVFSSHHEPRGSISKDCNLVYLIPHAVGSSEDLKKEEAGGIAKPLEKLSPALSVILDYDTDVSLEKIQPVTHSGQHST
T1 sequence (P61169 whole entry): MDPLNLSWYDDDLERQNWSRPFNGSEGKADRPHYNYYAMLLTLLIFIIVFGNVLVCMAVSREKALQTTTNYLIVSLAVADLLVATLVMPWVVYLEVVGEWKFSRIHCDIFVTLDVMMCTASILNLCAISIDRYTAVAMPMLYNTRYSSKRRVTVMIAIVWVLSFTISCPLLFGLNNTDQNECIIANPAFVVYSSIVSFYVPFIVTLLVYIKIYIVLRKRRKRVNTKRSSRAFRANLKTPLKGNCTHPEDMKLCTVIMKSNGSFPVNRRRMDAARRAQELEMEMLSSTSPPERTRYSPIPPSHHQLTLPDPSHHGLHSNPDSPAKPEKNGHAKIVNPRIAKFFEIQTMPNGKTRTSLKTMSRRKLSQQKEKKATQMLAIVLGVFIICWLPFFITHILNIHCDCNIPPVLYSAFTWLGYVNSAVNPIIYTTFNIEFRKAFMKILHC

| Structure (SMILES) | pKi (D2 dopamine receptors; [1]) | Ki for D2 / Ki for D1 (D2 dopamine receptors) | pKi (D1 dopamine receptors) | pKi (D2 dopamine receptors; estimated from single concentration data by Langmuir adsorption isotherm equation, read-out: Ki for D2 binding (marked E)) |
| --- | --- | --- | --- | --- |
| CN1CCc2cc(Cl)c(O)cc2C1C1(c2ccccc2)CCC1 (single isomer, unassigned; (-)) [Example 59, (-)-6-chloro-7-hydroxy-2-methyl-1-(1-phenylcyclobutyl)-1,2,3,4-tetrahydroisoquinoline] | 5.49 | 620 | 8.28 | – |
| CN1CCc2cc(O)c(O)cc2C1C1(c2ccccc2Cl)CCC1 (centres unmarked) [Example 2, 1-[1-(2-chlorophenyl)cyclobutyl]-6,7-dihydroxy-2-methyl-1,2,3,4-tetrahydroisoquinoline] | 4.92 | 1700 | 8.14 | – |
| CN1CCc2cc(O)c(O)cc2C1C1(c2ccc(F)cc2)CCC1 (centres unmarked) [Example 3, 1-[1-(4-fluorophenyl)cyclobutyl]-6,7-dihydroxy-2-methyl-1,2,3,4-tetrahydroisoquinoline] | 2.21 | 280000 | 7.66 | – |
| Cc1ccccc1C1(C2c3cc(O)c(O)cc3CCN2C)CCC1 (centres unmarked) [Example 4, 6,7-dihydroxy-2-methyl-1-[1-(o-tolyl)cyclobutyl]-1,2,3,4-tetrahydroisoquinoline] | 3.59 | 9000 | 7.54 | – |
| CN1CCc2cc(F)c(O)cc2C1C1(c2ccc(Cl)cc2)CCC1 (centres unmarked) [Example 5, 1-[1-(4-chlorophenyl)cyclobutyl]-6-fluoro-7-hydroxy-2-methyl-1,2,3,4-tetrahydroisoquinoline] | 4.49 | 3900 | 8.08 | – |
| CN1CCc2cc(O)c(O)cc2C1C1(c2ccccc2F)CCC1 (centres unmarked) [Example 7, 1-[1-(2-fluorophenyl)cyclobutyl]-6,7-dihydroxy-2-methyl-1,2,3,4-tetrahydroisoquinoline] | 5.54 | 140 | 7.68 | – |
| CN1CCc2cc(O)c(O)cc2C1C1(c2cccc(C(F)(F)F)c2)CCC1 (centres unmarked) [Example 8, 6,7-dihydroxy-2-methyl-1-[1-(3-trifluoromethylphenyl)cyclobutyl]-1,2,3,4-tetrahydroisoquinoline] | < 5.30 | > 16 | 6.51 | – |
| CN1CCc2cc(-c3ccccc3)c(O)cc2C1C1(c2ccccc2Cl)CCC1 (centres unmarked) [Example 11, 1-[1-(2-chlorophenyl)cyclobutyl]-7-hydroxy-2-methyl-6-phenyl-1,2,3,4-tetrahydroisoquinoline] | 5.46 | 23 | 6.82 | – |
| CN1CCc2cc(O)c(O)cc2C1C1(c2ccc(Cl)cc2)CC1 (centres unmarked) [Example 13, 1-[1-(4-chlorophenyl)cyclopropyl]-6,7-dihydroxy-2-methyl-1,2,3,4-tetrahydroisoquinoline] | 5.43 | 84 | 7.36 | – |
| CN1CCc2cc(O)c(O)cc2C1C1(c2ccc(Cl)cc2)CCCC1 (centres unmarked) [Example 14, 1-[1-(4-chlorophenyl)cyclopentyl]-6,7-dihydroxy-2-methyl-1,2,3,4-tetrahydroisoquinoline] | 5.32 | 40 | 6.92 | – |
| CN1CCc2cc(O)c(O)cc2C1C1(c2ccccc2)CCCC1 (centres unmarked) [Example 15, 6,7-dihydroxy-2-methyl-1-(1-phenylcyclopentyl)-1,2,3,4-tetrahydroisoquinoline] | < 5.30 | > 25 | 6.70 | – |
| CN1CCc2cc(O)c(O)cc2C1C1(c2ccc(Cl)cc2)CCCCC1 (centres unmarked) [Example 16, 1-[1-(4-chlorophenyl)cyclohexyl]-6,7-dihydroxy-2-methyl-1,2,3,4-tetrahydroisoquinoline] | 5.49 | 18 | 6.74 | – |
| CN1CCc2cc(O)c(O)cc2C1C1(c2ccc(Cl)c(Cl)c2)CCC1 (centres unmarked) [Example 18, 1-[1-(3,4-dichlorophenyl)cyclobutyl]-6,7-dihydroxy-2-methyl-1,2,3,4-tetrahydroisoquinoline] | 5.36 | 53 | 7.08 | – |
| CN1CCc2cc(O)c(O)cc2C1C1(c2ccc(O)cc2)CCCC1 (centres unmarked) [Example 19, 6,7-dihydroxy-1-[1-(4-hydroxyphenyl)cyclopentyl]-2-methyl-1,2,3,4-tetrahydroisoquinoline] | – | – | 6.72 | 5.15 |
| CN1CCc2cc(Br)c(O)cc2C1C1(c2ccccc2)CCC1 (centres unmarked) [Example 20, 6-bromo-7-hydroxy-2-methyl-1-(1-phenylcyclobutyl)-1,2,3,4-tetrahydrosoqunoline] | < 5.30 | > 160 | 7.51 | – |

Compounds with a higher pKi (D1 dopamine receptors), results first:

| pKi (D2 dopamine receptors; [1]) | Ki for D2 / Ki for D1 (D2 dopamine receptors) | pKi (D1 dopamine receptors) | pKi (D2 dopamine receptors; estimated from single concentration data by Langmuir adsorption isotherm equation, read-out: Ki for D2 binding (marked E)) | Structure (SMILES) |
| --- | --- | --- | --- | --- |
| 5.70 | 710 | 8.55 | – | CN1CCc2cc(O)c(O)cc2C1C1(c2ccccc2Br)CCC1 (single isomer, unassigned; (+)) [Example 60, (+)-1-[1-(2-bromo-phenyl)cyclobutyl] -6,7-dihydroxy-2-methyl-1,2,3,4-tetrahydroisoquinoline] |
| 6.39 | 1100 | 9.42 | – | CN1CCc2cc(F)c(O)cc2C1C1(c2ccccc2Cl)CC1 (single isomer, unassigned; (+)) [Example 62, (+)-1-[1-(2-chlorophenyl)cyclopropyl]-6-fluoro-7-hydroxy-2-methyl-1,2,3,4-tetrahydroisoquinoline] |
| 5.32 | 2000 | 8.62 | – | CN1CCc2cc(F)c(O)cc2C1C1(c2ccccc2Cl)CCC1 (single isomer, unassigned; (+)) [Example 64, (+)-1-[1-(2-chlorophenyl)cyclobutyl]-6-fluoro-7-hydroxy-2-methyl-1,2,3,4-tetrahydroisoquinoline] |
| 6.05 | 3200 | 9.55 | – | COc1cc2c(cc1O)C(C1(c3ccccc3Cl)CC1)N(C)CC2 (single isomer, unassigned; (+)) [Example 77, (+)-1-[1-(2-chlorophenyl)cyclopropyl]-7-hydroxy-6-methoxy-2-methyl-1,2,3,4-tetrahydroisoquinoline] |
| 6.43 | 550 | 9.17 | – | Cc1cc2c(cc1O)C(C1(c3ccccc3Cl)CC1)N(C)CC2 (single isomer, unassigned; (+)) [Example 80, (+)-1-[1-(2-chlorophenyl)cyclopropyl]-7-hydroxy-2,6-dimethyl-1,2,3,4-tetrahydroisoquinoline] |
| 6.05 | 3200 | 9.55 | – | COc1cc2c(cc1O)C(C1(c3ccccc3Cl)CC1)N(C)CC2 (single isomer, unassigned; (+)) [Example 85, (+)-1-[1-(2-chlorophenyl)cyclopropyl]-7-hydroxy-6-methoxy-2-methyl-1,2,3,4-tetrahydroisoquinoline] |
| 6.00 | 250 | 8.40 | – | CN1CCc2cc(O)c(O)cc2C1C1(c2ccccc2Br)CCC1 (centres unmarked) [Example 1, 1-[1-(2-bromophenyl)cyclobutyl]-6,7-dihydroxy-2-methyl-1,2,3,4-tetrahydroisoquinoline] |
| 4.39 | 14000 | 8.52 | – | CN1CCc2cc(F)c(O)cc2C1C1(c2ccc(Br)cc2)CCC1 (centres unmarked) [Example 6, 1-[1-(4-bromophenyl)cyclobutyl]-6-fluoro-7-hydroxy-2-methyl-1,2,3,4-tetrahydroisoquinoline] |
| 5.74 | 950 | 8.72 | – | CN1CCc2cc(F)c(O)cc2C1C1(c2ccc(Cl)cc2Cl)CCC1 (centres unmarked) [Example 9, 1-[1-(2,4-dichlorophenyl)cyclobutyl]-6-fluoro-7-hydroxy-2-methyl-1,2,3,4-tetrahydroisoquinoline] |
| 5.60 | 1600 | 8.80 | – | Cc1cc2c(cc1O)C(C1(c3ccccc3Cl)CCC1)N(C)CC2 (centres unmarked) [Example 10, 1-[1-(2-chlorophenyl)cyclobutyl]-7-hydroxy-2,6-dimethyl-1,2,3,4-tetrahydroisoquinoline] |
| 6.15 | 510 | 8.85 | – | CN1CCc2ccc(O)cc2C1C1(c2ccccc2Cl)CC1 (centres unmarked) [Example 12, 1-(1-(2-chlorophenyl)cyclopropyl)-7-hydroxy-2-methyl-1,2,3,4-tetrahydroisoquinoline] |
| 5.05 | 2300 | 8.41 | – | CN1CCc2cc(O)c(O)cc2C1C1(c2ccc(Br)cc2)CCC1 (centres unmarked) [Example 17, 1-[1-(4-bromophenyl)cyclobutyl]-6,7-dihydroxy-2-methyl-1,2,3,4-tetrahydroisoquinoline] |
